Laboratory results reported in paper PMC5467147, “Identification of a Peptide for Systemic Brain Delivery of a Morpholino Oligonucleotide in Mouse Models of Spinal Muscular Atrophy” (Nucleic Acid Therapeutics, 2017).

Assays:
patients = conditions: human, in vivo; cited from earlier work
SMN2 pre-mRNA exon 7 = test: In vivo screening of P-PMOs in neonatal SMA mice at PND4, full-length SMN2 by RT-qPCR; design: species or system mouse; conditions: facial vein at PND4, 2.66 nmol P-PMO, harvest 7 days after treatment, normalized to total SMN2, relative to saline, mean ± SEM, n = 4–6
SMNΔ7 mice = conditions: newborn SMNΔ7 mice, single ICV injections (27, 54, and 81 μg) at P0; cited from earlier work
Method: PMO is used in several clinical and preclinical studies due to its high stability and low toxicity. The PMO sequence PMO20, also known as HSMN2Ex7D(−10,-29), has been previously studied by Porensky et al.. Single ICV injections (27, 54, and 81 μg) of this PMO in newborn SMNΔ7 mice at P0 increased the levels of both full-length SMN2 RNA transcript in the brain and spinal cord as well as SMN protein and yielded an increased survival of >100 days. In a similar study, Zhou et al. used the same PMO sequence [PMO20 (−10, −29)] as well as PMO18 (−10, −27) and PMO25 (−10, −34 ...

[1] = tested on: severe SMA (Smn1tm1Hung/tm1Hung;SMN2tg/o) mice; test: Survival and phenotype of severe newborn SMA mice treated at PND0 and PND2; type: in vivo, mouse; conditions: severe SMA pups
Method: Experiments were carried out in the Biomedical Sciences Unit, University of Oxford, according to procedures authorized by the UK Home Office and approved by the Unit Approval Board. Experiments were carried out using the SMA-like mouse strain FVB.Cg-Smn1^tm1HungTg(SMN2)2Hung/J. For the purposes of welfare, the peptide screen was carried out on hemizygotic (Smn1^tm1Hung/wt;SMN2^tg/tg) pups generated as previously described. Each litter (n = 4–6 per P-PMO) at PND4 was injected with P-PMO (2.6 nmol) in 10–15 μL of 0.9% saline. The control litter was injected with 0.9% saline. Neonatal mice were euthanized 7 days postinjection and brains, kidneys, and quadriceps were extracted and frozen on dry ice before RNA extraction. The Br-ApoE (K→A)-PMO and Br-ApoE (K→A)-scrambled PMO were further analyzed in homozygotic pups (Smn1^tm1Hung/tm1Hung;SMN2^tg/o) generated as previously described. Pups used for phenotype assessment were injected with 10 μg/g (1 nmol) Br-ApoE (K→A)-PMO, Br-ApoE (K→A)-scrambled PMO, SMA-PMO through the facial vein at PND0 and PND2. Treated animals were weighed daily and observed for survival longevity. A humane endpoint was determined by mobility and weight. Animals who had reached their humane endpoint were euthanized by rising CO2.
Pups were also tested from PND2 to PND12 for hindlimb strength and […]. Hindlimb strength was scored using a hindlimb suspension (HLS) test developed by PsychoGenics, Inc. and described in the standardized protocols and procedures for preclinical studies by TREAT-NMD. The HLS score relates to the position of the legs and tail of pups suspended by their hindlimbs onto the lip of a 50-cc test tube. A score of 0 − 4 is given with the 0 relating to the weakest phenotype (feet clasped and tail down) and a 4 given to the strongest phenotype (legs spread and tail up). For the purposes of reproducibility, factors such as leg pulls and time were left out of the analysis. Righting reflex was measured by placing pups on their back and timing their ability to right themselves onto all four paws.

Substance	patients who developed side effects such as headache, back pain, and postlumbar puncture syndromes (patients)	full-length SMN2 transcript, Brain (SMN2 pre-mRNA exon 7)	full-length SMN2 transcript, Kidney (SMN2 pre-mRNA exon 7)	full-length SMN2 transcript, Quad (quadriceps) (SMN2 pre-mRNA exon 7)	survival (SMNΔ7 mice)	age range (survival) ([1]; 10 μg/g facial vein at PND0 and PND2, days by b51, saline 6–13)	median survival ([1]; two doses of 10 mg/kg (10 μg/g) facial vein at PND0 and PND2, saline 10.5 days)	hindlimb strength (hindlimb suspension tube test) ([1]; two doses of 10 mg/kg at PND0 and PND2, PND2 to PND12)
Nusinersen	32 % of patients	–	–	–	–	–	–	–
AngioPep-2	–	1 ± 0.03	1.07 ± 0.07	1.24 ± 0.1	–	–	–	–
SMA-PMO: unconjugated 20-mer PMO for SMN2 exon-7 inclusion, 5′-ATTCACTTTCATAATGCTGG-3′ (all phosphorodiamidate morpholino (PMO))	–	1 ± 0.02	1 ± 0.04	1.25 ± 0.05	> 100 days	11–49	29 days	gradual decline in muscle strength
